For data set [1], the system named is Stage III-V gametocytes (blood stage P. falciparum parasites). Nature of the data set: In vitro drug activity on gametocytes (AlamarBlue viability assay). Type of data set: cell-based, Plasmodium falciparum. Particulars: P. falciparum stage III-V gametocytes, 72 h incubation, AlamarBlue; for EC50: read-out: Gametocyte EC50. The essentials: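 Viability was measured by AlamarBlue fluorescence (Ex 525/Em 598 nm) after 24 h dye incubation following 72 h compound exposure at 37° C, 5% CO2. Gametocytes, stage III–V from strains 3D7, HB3 and Dd2, were NAG/Percoll-enriched and plated at 20,000 cells/well.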
Background: Alamar Blue is a resazurin reagent that responds to reducing activity.

Data set [2] deals with Asexual parasites of P. falciparum strain 3D7. The data set can be described thus: In vitro drug activity on asexual parasites (SYBR Green assay). Type of data set: cell-based, Plasmodium falciparum. Particulars: P. falciparum 3D7 asexual parasites, 72 h, SYBR Green. The essentials: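 SYBR Green I fluorescence (ex 490, em 520 nm) was read after freeze-thaw lysis and 30 min staining at room temperature. Before that, drug-treated cultures (0.5% parasitemia, 2% hematocrit, DMSO ≤0.5%) were incubated 72 h, in duplicate.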

A short description of data set [3]: Microsomal stability (rat). Type of data set: in vitro ADME. Particulars: rat microsomes.
A short description of another data set: Solubility at pH 7.4. Type of data set: physicochemical.
The next data set in a line: PAMPA permeability. Type of data set: in vitro ADME. The conditions noted are these: PAMPA. In general terms: The PAMPA barrier holds no transporters, so it reflects passive diffusion.

Structures are written as SMILES. A value given as a limit tells only on which side of the number the result lay.

What is called EC50 is the concentration giving half of the maximal effect. Regarding `Nc1ccc(-c2ccc3ncc4ccc(=O)n(-c5ccc6c(c5)C(=O)NC6)c4c3c2)cn1` [Compound 387], the EC50 in data set [1] turned out to be 1840 nM; in data set [2], 316 nM. The “Microsomal Stability (rat) T1/2” value in data set [3] is listed as above 30.0 min. The “Sol @ pH 7.4 (ug/mL)” value in “Solubility at pH 7.4” was determined as 1.4 ug/mL. For the same compound, the “PAMPA Permeability (×10^6 cm/s)” value in “PAMPA permeability” is listed as <4.1 ×10^6 cm/s.
For `CN(C)Cc1ccc(-c2ccc3ncc4ccc(=O)n(-c5ccc6c(c5)CN(C)C6=O)c4c3c2)cc1` [Compound 347] the same measures were 1720 nM, 668 nM, above 30.0 min, above 70.0 ug/mL and 317.6 ×10^6 cm/s.
With `CS(=O)(=O)c1ccc(-n2c(=O)ccc3cnc4ccc(-c5ccc(Cl)c(C(=O)O)c5)cc4c32)cc1` [Compound 43], the “Gametocyte EC50 (nM)” value in data set [1] is recorded as “Inactive”. In data set [2], this compound had an EC50 of 43800 nM. Further, the “Microsomal Stability (rat) T1/2” value in data set [3] was above 30.0 min. Further, the “Sol @ pH 7.4 (ug/mL)” value in the data set “Solubility at pH 7.4” is listed as above 74.0 ug/mL. In “PAMPA permeability”, the “PAMPA Permeability (×10^6 cm/s)” value is given as <1.0 ×10^6 cm/s.
As to `CN(C)Cc1ccc(-c2ccc3ncc4ccc(=O)n(-c5ccc6c(c5)CCNC6=O)c4c3c2)cc1` [Compound 342], the EC50 in data set [1] was 350 nM; in data set [2], 130 nM. Further, in data set [3], the “Microsomal Stability (rat) T1/2” value is reported as above 30.00 min. In addition, the “Sol @ pH 7.4 (ug/mL)” value in “Solubility at pH 7.4” is 31.01 ug/mL. Moreover, the “PAMPA Permeability (×10^6 cm/s)” value in the data set “PAMPA permeability” is 12.72 ×10^6 cm/s.
Turning to `CS(=O)(=O)c1ccc(-n2c(=O)ccc3cnc4ccc(-c5ccc(Cl)c(N)c5)cc4c32)cc1C(F)(F)F` [Compound 45], the values for the EC50 in data set [1] and in data set [2] were 209 nM and 77.8 nM, respectively. The “Microsomal Stability (rat) T1/2” value in data set [3] turned out to be 8.9 min. The “Sol @ pH 7.4 (ug/mL)” value in “Solubility at pH 7.4” is given as below 1.0 ug/mL. Besides, the “PAMPA Permeability (×10^6 cm/s)” value in “PAMPA permeability” is recorded as 144.4 ×10^6 cm/s.
The like results for `COC(=O)c1cc(-c2ccc3ncc4ccc(=O)n(-c5ccc(S(C)(=O)=O)cc5)c4c3c2)ccc1Cl` [Compound 49] were, in that order, 1990 nM, 3190 nM, 4.3 min, below 1.0 ug/mL and 235.8 ×10^6 cm/s.
`CN(C)C=NS(=O)(=O)c1ccc(-n2c(=O)ccc3cnc4ccc(-c5ccc(Cl)cc5)cc4c32)cc1` [Compound 44]: the figures for the EC50 in data set [1] and in data set [2] were 135 nM and 31.2 nM, respectively. The “Microsomal Stability (rat) T1/2” value in data set [3] is given as 4.6 min. In addition, in “Solubility at pH 7.4”, the “Sol @ pH 7.4 (ug/mL)” value is below 1.0 ug/mL. Besides, in the data set “PAMPA permeability”, the “PAMPA Permeability (×10^6 cm/s)” value is given as 34.8 ×10^6 cm/s.
For `Nc1ccc(-c2ccc3ncc4ccc(=O)n(-c5cccc(S(N)(=O)=O)c5)c4c3c2)cn1` [Compound 77] the same measures were 295 nM, 81.7 nM, above 30.0 min, 33.6 ug/mL and <1.0 ×10^6 cm/s.
The like results for `CN(C)Cc1ccc(-c2ccc3ncc4ccc(=O)n(-c5ccc6c(c5)NC(=O)C6)c4c3c2)cc1` [Compound 374] were, in that order, 12900 nM, 4180 nM, above 30 min, 52.5 ug/mL and <1.6 ×10^6 cm/s.
The like results for `CN(C)Cc1ccc(-c2ccc3ncc4ccc(=O)n(-c5ccc6c(c5)C(=O)NC6)c4c3c2)cc1` [Compound 349] were, in that order, 26800 nM, 14200 nM, above 30.0 min, above 68.0 ug/mL and 2.5 ×10^6 cm/s.
Take `CS(=O)(=O)c1ccc(-n2c(=O)ccc3cnc4ccc(-c5ccc(Cl)cc5)cc4c32)cc1` [Compound 25]: the EC50 in data set [1] is 117 nM; in data set [2], 14.7 nM. Moreover, the “Microsomal Stability (rat) T1/2” value in data set [3] is reported as above 30.0 min. In “Solubility at pH 7.4”, the “Sol @ pH 7.4 (ug/mL)” value was below 1.0 ug/mL. The “PAMPA Permeability (×10^6 cm/s)” value in “PAMPA permeability” is listed as <1.5 ×10^6 cm/s.
`CN1Cc2cc(-n3c(=O)ccc4cnc5ccc(-c6ccc(F)cc6)cc5c43)ccc2C1=O` [Compound 360]: the figures for the EC50 in data set [1] and in data set [2] were 736 nM and 170 nM, respectively. Further, the “Microsomal Stability (rat) T1/2” value in data set [3] was 19.2 min. Also, the “Sol @ pH 7.4 (ug/mL)” value in the data set “Solubility at pH 7.4” worked out at 0.73 ug/mL. Besides, the “PAMPA Permeability (×10^6 cm/s)” value in “PAMPA permeability” was 635.05 ×10^6 cm/s.
For `O=c1ccc2cnc3ccc(-c4ccc(Cl)cc4)cc3c2n1-c1ccc(S(=O)(=O)N2CCOCC2)cc1` [Compound 38] the same measures were 187 nM, 220 nM, 12.7 min, below 1.0 ug/mL and 32.5 ×10^6 cm/s.
Regarding `CS(=O)(=O)c1ccc(-n2c(=O)ccc3cnc4ccc(-c5ccc(Cl)c(C(=O)N6CCOCC6)c5)cc4c32)cc1` [Compound 52], the EC50 in data set [1] amounted to 35200 nM; in data set [2], 14700 nM. For the same compound, in data set [3], the “Microsomal Stability (rat) T1/2” value was below 1.0 min. In the data set “Solubility at pH 7.4”, the “Sol @ pH 7.4 (ug/mL)” value worked out at 57.2 ug/mL. In addition, the “PAMPA Permeability (×10^6 cm/s)” value in “PAMPA permeability” is 200.8 ×10^6 cm/s.
For `CN(C)Cc1ccc(-c2ccc3ncc4ccc(=O)n(-c5ccc(S(=O)(=O)NC6CC6)cc5)c4c3c2)cc1` [Compound 57] the same measures were 840 nM, 381 nM, above 30.0 min, 7.9 ug/mL and 527.8 ×10^6 cm/s.
For `CCN1Cc2cc(-n3c(=O)ccc4cnc5ccc(-c6ccc(F)cc6)cc5c43)ccc2C1=O` [Compound 361] the same measures were 6440 nM, 1580 nM, above 30.00 min, below 0.10 ug/mL and 199.84 ×10^6 cm/s.
For `Cc1c(C#N)cccc1-n1c(=O)ccc2cnc3ccc(-c4ccc(N)nc4)cc3c21` [Compound 24] the same measures were 23.4 nM, 5.88 nM, 19 min, 5.7 ug/mL and 547.9 ×10^6 cm/s.
On to `NCc1cccc(-c2ccc3ncc4ccc(=O)n(-c5ccc6c(c5)CNC6=O)c4c3c2)c1` [Compound 370], for which the EC50 in data set [1] came out at 4120 nM; in data set [2], 296 nM. For the same compound, the “Microsomal Stability (rat) T1/2” value in data set [3] is listed as above 30 min. Further, the “Sol @ pH 7.4 (ug/mL)” value in “Solubility at pH 7.4” amounted to 27.3 ug/mL. For the same compound, in “PAMPA permeability”, the “PAMPA Permeability (×10^6 cm/s)” value is <1 ×10^6 cm/s.
On to `COc1cc(-c2ccc3ncc4ccc(=O)n(-c5ccc(S(C)(=O)=O)cc5)c4c3c2)ccc1Cl` [Compound 31], for which the EC50 is 222 nM in data set [1] and 33.5 nM in data set [2]. For the same compound, in data set [3], the “Microsomal Stability (rat) T1/2” value is above 30.0 min. The “Sol @ pH 7.4 (ug/mL)” value in “Solubility at pH 7.4” was below 1.0 ug/mL. Also, the “PAMPA Permeability (×10^6 cm/s)” value in “PAMPA permeability” is reported as 40.7 ×10^6 cm/s.
For `CCN1Cc2cc(-n3c(=O)ccc4cnc5ccc(-c6ccc(CN(C)C)cc6)cc5c43)ccc2C1=O` [Compound 348] the same measures were 2450 nM, 1460 nM, above 30.0 min, above 72.0 ug/mL and 289.4 ×10^6 cm/s.

The values above are taken from US11753408B2, “Compounds and method for blocking transmission of malarial parasite” (The United States of America, as represented by the …, priority 2016, dated 2023).
